Reference: US20240024291A1, “Uses of Dihydroorotate Dehydrogenase Inhibitors” (University of Maryland, Baltimore, priority 2022, published 2024)

What was measured:
[1] = test system: 913 neurosphere line; assay: Western blot for cleaved PARP1; type: cell-based, human; conditions: 10 nM
Procedure: (§1) Western Blots were performed using 25 µg of protein per sample loaded onto NuPAGE® Novex® 4-12% Bis-Tris protein gels and transferred onto nitrocellulose membranes that were then blocked with 5% BSA in PBS and 0.1% Tween (PBST). Primary antibody incubation was performed in 5% BSA in PBST at 4° C. overnight, and HRP-labeled secondary antibody incubation (1:5000) was performed for one hour at room temperature in 5% BSA in PBST.
(§2) Antibodies used for western blotting were acquired from the following sources: Cleaved PARP (Asp214) (D64E10) XP® Rabbit mAb, Cell Signaling Technology Cat#5625, RRID:AB_10699459, 1:1000 for Western blots. Phospho-H2AX, Millipore Cat#RRID:AB_2755003, 1:1000 for Western blots, and 1:250 for immunofluorescence imaging. p-Tubulin, Millipore Cat #MAB5564, RRID:AB 11212768, 1:10,000 for Western blots. p44/42 MAPK (Erk1/2) (137F5) Rabbit mAb (Cell Signaling Technology Cat #4695, RRID:AB_390779) 1:1000 for Western blots; Phospho-p44/42 MAPK (Erk1/2) (Thr202/Tyr204) (Cell Signaling Technology Cat #9101, RRID:AB_331646) 1:1000 for Western blots; Akt Antibody (Cell Signaling Technology Cat #9272, RRID:AB_329827) 1:1000 for Western blots; Phospho-Akt (Ser473) Antibody (Cell Signaling Technology Cat #9271, RRID:AB 329825) 1:1000 for Western blots.
(§3) Poly(ADP-ribose) polymerase 1 (PARP1) is a nuclear protein that is activated by binding to DNA lesions and catalyzes the poly(ADP-ribosyl)ation of various nuclear proteins, including PARP1 itself, to recruit the DNA repair machinery to DNA lesions (53, 54. When excessive DNA damage occurs, PARP1 is cleaved to generate an 89 kDa fragment shown to serve as a cytoplasmic PAR carrier to induce AIF-mediated apoptosis (55). Given the profound induction of DNA damage in compound 1-treated GBM neurospheres, the prevalence of the 89 kDa PARP1 fragment in control and 10 nM compound 1-treated cells was measured. Strikingly, a 9.7- and 56-fold increase in the level of cleaved PARP1 was found in 913 and 08-387 neurosphere lines, respectively, when cultured in normoxia. Similarly, a 9.9- and 71-fold increase was documented in the level of cleaved PARP1 in 913 and 08-387 neurosphere lines cultured in hypoxia (FIG. 6).

[2] = test system: 08-387 neurosphere line; assay: Western blot for cleaved PARP1; type: cell-based, human; conditions: 10 nM
Procedure: as §1, §2, §3

[3] = test system: 913 neurosphere line transduced with EGFRvIll or GFP; assay: Resistance assay, EGFRvIll or GFP transduced cells; type: cell-based, human; design: dose or concentration left out as unconfirmed
Procedure: (§4) Ten thousand 08-387 or 913 glioblastoma cells per well were seeded in a 96 well plate. Post 24 hr plating, 08-387 and 913 cells were treated with a varying dosage of compound 1 or with a varying dosage of gemcitabine alone or with 100 nM of compound 1. Post 72 hr of treatment, cell viability was calculated on Alamar blue absorbance reading.
(§5) The pLV[Expressior]-mCherry:T2A:Hygro-EF1A>Luc2 (Addgene Plasmid #174665) and pLV[Exp]-Bsd-EFS>EGFRvIll:T2A:TurboGFP (Addgene Plasmid #189841) lentivirus plasmids were designed by us and constructed by VectorBuilder. These plasmids are available at Addgene.
(§6) To further evaluate the potential role of EGFR in compound 1 resistance, the 913 and 08-387 neurosphere lines were transduced with lentiviruses encoding EGFRvIll or GFP (as control) and these neurospheres were challenged with a relatively high dose of 1 mM compound 1.

[4] = test system: 08-387 neurosphere line transduced with EGFRvIll or GFP; assay: Resistance assay, EGFRvIll or GFP transduced cells; type: cell-based, human; design: dose or concentration left out as unconfirmed
Procedure: as §4, §5, §6

[5] = test system: Mayo39 glioblastoma neurosphere line; assay: CellTiter-Glo in vitro proliferation assay; type: cell-based; conditions: Homo sapiens
Procedure: (§7) A Biospherix X3, hypoxic incubation system, was maintained at 37° C., 1% 02, 5% CO2, and 94% N2 (Biospherix, Ltd—Parish, NY) to conduct in vitro hypoxic experiments. Cells were plated, then incubated in normoxia overnight before transferring the culture dishes to hypoxia for the duration indicated in the main text.
(§8) Glioblastoma neurosphere lines were plated in 96-well plates at 25,000 cells per well in […] of media and treated with compound 1 in the presence or absence of 100 μM uridine. Cell Titer-Glo® Luminescent Cell Viability Assay (Promega, Madison, WI, USA) was performed 72 hours after treatment. Luminescence was determined using a Cytation 5 reader and Gen5 software package (BioTek, Winooski, VT, USA).
(§9) The compound's efficacy was examined against a collection of genetically diverse patient-derived GSC lines in vitro. The IC50 profiles of compound 1 in the seven GSC lines tested were established using the CellTiter-Glo® reagent and calculated with GraphPad software.

[6] = test system: Mayo15 glioblastoma neurosphere line; assay: CellTiter-Glo in vitro proliferation assay; type: cell-based; conditions: Homo sapiens
Procedure: as §7, §8, §9

[7] = test system: 1079 glioblastoma neurosphere line; assay: CellTiter-Glo in vitro proliferation assay; type: cell-based; conditions: Homo sapiens
Procedure: as §7, §8, §9

CCn1c(CO)nn(-c2cc(O[C@@H](C)C(F)(F)F)c(C(=O)Nc3c(F)cccc3Cl)cc2F)c1=O [Compound 1, N-(2-chloro-6-fluorophenyl)-4-[4-ethyl-4,5-dihydro-3-(hydroxymethyl)-5-oxo-1H-1,2,4-triazol-1-yl]-5-fluoro-2-[(1S)-2,2,2-trifluoro-1-methylethoxy]-benzamide]
increase in the level of cleaved PARP1 ([1]; 913, hypoxia): 9.9 fold | increase in the level of cleaved PARP1 ([1]; 913, normoxia): 9.7 fold | increase in the level of cleaved PARP1 ([2]; 08-387, hypoxia): 71 fold | increase in the level of cleaved PARP1 ([2]; 08-387, normoxia): 56 fold | surviving cell fraction ([3]; 913 EGFRvIll): 55.2% | surviving cell fraction ([3]; 913 GFP (control)): 27.9% | surviving cell fraction ([4]; 08-387 EGFRvIll): 36.7% | surviving cell fraction ([4]; 08-387 GFP (control)): 4% | IC50 ([5]; 72 h, Mayo39, hypoxia): 153 µM | IC50 ([5]; 72 h, Mayo39, normoxia): 182 µM | IC50 ([5]; Mayo39): 182 µM | IC50 ([6]; 72 h, Mayo15, hypoxia): 146 µM | IC50 ([6]; 72 h, Mayo15, normoxia): 64 µM | IC50 ([6]; Mayo15): 64 µM | IC50 [7]; 1079: 1.2 µM | IC50 ([7]; 72 h, 1079, hypoxia, 72 hours): 23.7 µM | IC50 ([7]; 72 h, 1079, normoxia, 72 hours): 1.2 µM
